Results taken from patent publication US20230322761A1, “DEGRADATION OF BRUTON'S TYROSINE KINASE (BTK) BY CONJUGATION OF BTK INHIBITORS WITH E3 LIGASE LIGAND AND METHODS OF USE” (BEIGENE, LTD., priority 2020, published 2023).

Biological target: T1, BTK (Homo sapiens, UniProt Q06187)
T1 construct: endogenous in cells; host or cells: TMD-8 cells
Assay: BTK degradation in TMD-8 cells, HTRF assay after 6 h treatment
Type: cell-based
Conditions: for DC50: IC50 (DC50) of BTK degradation
In short: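 TMD-8 cells treated for 6 h with 8 compound doses in 6-fold dilution steps from a 1 mM 500× DMSO stock (0.2% DMSO), then lysed 30 min at room temperature. BTK in lysate detected by HTRF (665/620 nm) after overnight antibody incubation; DC50 from four-parameter curve fit.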

T1 sequence (Q06187 whole entry): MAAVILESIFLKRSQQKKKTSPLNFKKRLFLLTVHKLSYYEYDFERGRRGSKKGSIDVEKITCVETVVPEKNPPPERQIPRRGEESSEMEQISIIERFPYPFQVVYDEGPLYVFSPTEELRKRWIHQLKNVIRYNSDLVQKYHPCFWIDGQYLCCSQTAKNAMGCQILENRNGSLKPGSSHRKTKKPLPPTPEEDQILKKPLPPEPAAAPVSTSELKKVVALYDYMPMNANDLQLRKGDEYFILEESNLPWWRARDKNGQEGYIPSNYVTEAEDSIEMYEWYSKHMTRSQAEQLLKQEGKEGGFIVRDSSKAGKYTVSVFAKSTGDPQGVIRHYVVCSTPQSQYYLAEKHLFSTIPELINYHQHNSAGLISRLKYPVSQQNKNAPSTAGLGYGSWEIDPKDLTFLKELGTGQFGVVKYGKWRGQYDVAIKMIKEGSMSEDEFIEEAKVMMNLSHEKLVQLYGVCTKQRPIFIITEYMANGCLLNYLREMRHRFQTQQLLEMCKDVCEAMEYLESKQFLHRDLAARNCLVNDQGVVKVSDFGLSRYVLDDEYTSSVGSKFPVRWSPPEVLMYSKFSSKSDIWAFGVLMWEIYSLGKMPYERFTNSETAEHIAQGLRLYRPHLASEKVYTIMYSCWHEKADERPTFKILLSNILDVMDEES

Compound | DC50 | Dmax (TMD8, maximum percentage of inhibition (degradation))
Cc1cc(CCN2CCN(c3ccc(-c4cnc5[nH]nc(-c6ccc([C@@H](C)NC(=O)c7nc(C(C)(C)C)no7)c(C)c6)c5c4)cc3)CC2)ncc1C1CCC(=O)NC1=O (stereo partly drawn) [Example 154, 3-(tert-butyl)-N-((1R)-1-(4-(5-(4-(4-(2-(5-(2,6-dioxopiperidin-3-yl)-4-methylpyridin-2-yl)ethyl)piperazin-1-yl)phenyl)-1H-pyrazolo[3,4-b]pyridin-3-yl)-2-methylphenyl)ethyl)-1,2,4-oxadiazole-5-carboxamide] | 3.27 nM | –
Cc1cc(-c2n[nH]c3ncc(-c4ccc(N5CCN(CC6CCN(c7cccc(N8CCC(=O)NC8=O)c7)CC6)CC5)cc4)cc23)ccc1[C@@H](C)NC(=O)c1noc(C(C)(C)C)n1 [Example 138, (R)-5-(tert-butyl)-N-(1-(4-(5-(4-(4-((1-(3-(2,4-dioxotetrahydropyrimidin-1(2H)-yl)phenyl)piperidin-4-yl)methyl)piperazin-1-yl)phenyl)-1H-pyrazolo[3,4-b]pyridin-3-yl)-2-methylphenyl)ethyl)-1,2,4-oxadiazole-3-carboxamide] | 8.6 nM | –
Cc1cc(-c2n[nH]c3ncc(-c4ccc(N5CCN(CCc6ccc(N7CCC(=O)NC7=O)c(C)c6)CC5)cc4)cc23)ccc1[C@@H](C)NC(=O)c1noc(C(C)(C)C)n1 [Example 119, (R)-5-(tert-butyl)-N-(1-(4-(5-(4-(4-(4-(2,4-dioxotetrahydropyrimidin-1(2H)-yl)-3-methylphenethyl)piperazin-1-yl)phenyl)-1H-pyrazolo[3,4-b]pyridin-3-yl)-2-methylphenyl)ethyl)-1,2,4-oxadiazole-3-carboxamide] | 2.12 nM | –
Cc1cc(-c2n[nH]c3ncc(-c4ccc(N5CCN(CC(F)(F)c6ccc(C7CCC(=O)NC7=O)cc6)CC5)cc4)cc23)ccc1[C@@H](C)NC(=O)c1noc(C(C)(C)C)n1 (stereo partly drawn) [Example 175, 5-(tert-butyl)-N-((1R)-1-(4-(5-(4-(4-(2-(4-(2,6-dioxopiperidin-3-yl)phenyl)-2,2-difluoroethyl)piperazin-1-yl)phenyl)-1H-pyrazolo[3,4-b]pyridin-3-yl)-2-methylphenyl)ethyl)-1,2,4-oxadiazole-3-carboxamide] | 8.39 nM | –
Cc1cc(-c2n[nH]c3ncc(-c4ccc(N5CCN(CCc6ccc([C@@H]7CCC(=O)NC7=O)c(F)c6)CC5)cc4)cc23)ccc1[C@@H](C)NC(=O)c1noc(C(C)(C)C)n1 [Example 114, 5-(tert-butyl)-N—((R)-1-(4-(5-(4-(4-(4-((S)-2,6-dioxopiperidin-3-yl)-3-fluorophenethyl)piperazin-1-yl)phenyl)-1H-pyrazolo[3,4-b]pyridin-3-yl)-2-methylphenyl)ethyl)-1,2,4-oxadiazole-3-carboxamide] | 1.56 nM | –
Cc1cc(-c2n[nH]c3ncc(-c4ccc(N5CC6CC5CN6CCc5ccc(C6CCC(=O)NC6=O)cc5)cn4)cc23)ccc1[C@@H](C)NC(=O)c1noc(C(C)(C)C)n1 (stereo partly drawn) [Example 133, 5-(tert-butyl)-N-((1R)-1-(4-(5-(5-(5-(4-(2,6-dioxopiperidin-3-yl)phenethyl)-2,5-diazabicyclo[2.2.1]heptan-2-yl)pyridin-2-yl)-1H-pyrazolo[3,4-b]pyridin-3-yl)-2-methylphenyl)ethyl)-1,2,4-oxadiazole-3-carboxamide] | 1.96 nM | –
Cc1cc(-c2n[nH]c3ncc(-c4ccc(C5CCN(CCCOc6ccc(C7CCC(=O)NC7=O)c(C)c6)CC5)cc4)cc23)ccc1CNC(=O)c1nc(C(C)(C)C)no1 (centres unmarked) [Example 27, 3-(tert-butyl)-N-(4-(5-(4-(1-(3-(4-(2,6-dioxopiperidin-3-yl)-3-methylphenoxy)propyl)piperidin-4-yl)phenyl)-1H-pyrazolo[3,4-b]pyridin-3-yl)-2-methylbenzyl)-1,2,4-oxadiazole-5-carboxamide] | 9.25 nM | 95.3%
Cc1cc(-c2n[nH]c3ncc(-c4ccc(N5CCN(CCc6ccc([C@H]7CCC(=O)NC7=O)c(F)c6)CC5)cc4)cc23)ccc1[C@@H](C)NC(=O)c1noc(C(C)(C)C)n1 [Example 113, 5-(tert-butyl)-N—((R)-1-(4-(5-(4-(4-(4-((R)-2,6-dioxopiperidin-3-yl)-3-fluorophenethyl)piperazin-1-yl)phenyl)-1H-pyrazolo[3,4-b]pyridin-3-yl)-2-methylphenyl)ethyl)-1,2,4-oxadiazole-3-carboxamide] | 17 nM | –
Cc1cc(-c2n[nH]c3ncc(-c4ccc(N5CCN(CC6CCN(c7ccc(N8CCC(=O)NC8=O)c(C)c7)CC6)CC5)cn4)cc23)ccc1[C@@H](C)NC(=O)c1noc(C(C)(C)C)n1 [Example 78, (R)-5-(tert-butyl)-N-(1-(4-(5-(5-(4-((1-(4-(2,4-dioxotetrahydropyrimidin-1(2H)-yl)-3-methylphenyl)piperidin-4-yl)methyl)piperazin-1-yl)pyridin-2-yl)-1H-pyrazolo[3,4-b]pyridin-3-yl)-2-methylphenyl)ethyl)-1,2,4-oxadiazole-3-carboxamide] | 1.75 nM | –
Cc1cc(-c2n[nH]c3ncc(-c4ccc(C5CCN(CC6CCN(c7ccc(N8CCC(=O)NC8=O)cc7)CC6)CC5)cc4)cc23)c(F)cc1CNC(=O)c1noc(C(C)(C)C)n1 [Example 222, 5-(tert-butyl)-N-(4-(5-(4-(1-((1-(4-(2,4-dioxotetrahydropyrimidin-1(2H)-yl)phenyl)piperidin-4-yl)methyl)piperidin-4-yl)phenyl)-1H-pyrazolo[3,4-b]pyridin-3-yl)-5-fluoro-2-methylbenzyl)-1,2,4-oxadiazole-3-carboxamide] | 16.1 nM | –
COc1cc(N2CCC(CN3CCN(c4ccc(-c5cnc6[nH]nc(-c7ccc(CNC(=O)c8noc(C(C)(C)C)n8)c(C)c7)c6c5)cc4)CC3)CC2)ccc1N1CCC(=O)NC1=O [Example 50, 5-(tert-butyl)-N-(4-(5-(4-(4-((1-(4-(2,4-dioxotetrahydropyrimidin-1(2H)-yl)-3-methoxyphenyl)piperidin-4-yl)methyl)piperazin-1-yl)phenyl)-1H-pyrazolo[3,4-b]pyridin-3-yl)-2-methylbenzyl)-1,2,4-oxadiazole-3-carboxamide] | 4.65 nM | –
Cc1cc(-c2n[nH]c3ncc(-c4ccc(N5CCC(CN6CCN(c7ccc(N8CCC(=O)NC8=O)cn7)CC6)CC5)cc4)cc23)ccc1[C@@H](C)NC(=O)c1noc(C(C)(C)C)n1 [Example 165, (R)-5-(tert-butyl)-N-(1-(4-(5-(4-(4-((4-(5-(2,4-dioxotetrahydropyrimidin-1(2H)-yl)pyridin-2-yl)piperazin-1-yl)methyl)piperidin-1-yl)phenyl)-1H-pyrazolo[3,4-b]pyridin-3-yl)-2-methylphenyl)ethyl)-1,2,4-oxadiazole-3-carboxamide] | 2.7 nM | –
Cc1cc(-c2n[nH]c3ncc(-c4ccc(N5CCCN(CC6CCN(c7ccc(N8CCC(=O)NC8=O)cc7)CC6)CC5)cc4)cc23)ccc1[C@@H](C)NC(=O)c1nc(C(C)(C)C)no1 [Example 202, (R)-3-(tert-butyl)-N-(1-(4-(5-(4-(4-((1-(4-(2,4-dioxotetrahydropyrimidin-1(2H)-yl)phenyl)piperidin-4-yl)methyl)-1,4-diazepan-1-yl)phenyl)-1H-pyrazolo[3,4-b]pyridin-3-yl)-2-methylphenyl)ethyl)-1,2,4-oxadiazole-5-carboxamide] | 9.04 nM | –
